# Reference: patent publication US20090264298A1, “Methods for enriching subpopulations” (AMBERGEN, Inc., priority 2007, published 2009)
# Assays:
# [1] = biological target: T1, PKCα (Homo sapiens, UniProt P17252); test: PMA mediated PKCα sub-cellular translocation, measured by kinase activity after photocleavable antibody isolation; assay type: cell-based; conditions: cultured HeLa cells, 200 nM PMA for 5 min, detergent fractionated; based on kinase activity of isolated PKCα; n=4
# T1 construct: isolate and photo-release endogenous PKCa from the undiluted detergent fractionated HeLa cell extracts; endogenous in cells; host or cells: HeLa (ATCC)
# Procedure: FIG. 20. Phorbol ester (PMA) mediated protein kinase Cα (PKCα) sub-cellular translocation as measured by functional activity following isolation with photocleavable antibodies. Cultured HeLa cells were stimulated with 200 nM PMA for 5 min and detergent fractionated into the cytosol and membrane compartments prior to isolation and purification with the photocleavable antibodies.
# Cultured HeLa cells (ATCC; Manassas, Va.) were stimulated for 5 min with 200 nM Phorbol-12-Myristate-13-Acetate (PMA; EMD Biosciences, Inc., San Diego, Calif.) and subsequently detergent fractionated into sub-cellular compartments according to reported procedures [Ramsby et al. (1994) Electrophoresis 15, 265-277; Ramsby & Makowski. (1999) Methods Mol Biol 112, 53-66; Chiang et al. (2000) J Biochem Biophys Methods 46, 53-68]. PMA is a potent activator of PKCα and is well known to cause translocation of the kinase from the cytosolic to the membrane sub-cellular compartments [Ross & Joyner. (1997) Endothelium 5, 321-332; Bazan & Rapoport. (1996) JPharmacol Toxicol Methods 36, 87-95; Yazlovitskaya & Melnykovych. (1995) Cancer Lett 88, 179-183]. […]
# [2] = biological target: T2, MDM2 (Homo sapiens, UniProt Q00987); test: p53-MDM interaction assay, complexes pre-formed before contact photo-transfer; assay type: binding; conditions: complex formed in solution, captured on beads, contact photo-transferred
# T2 construct: polyhistidine (C); made in house; host or cells: rabbit reticulocyte lysate, cell-free (MDM2)
# Procedure: All steps were performed at +4° C. or on an ice water bath and all reagents and samples were also kept under these conditions during the procedure. […] To facilitate addition of small bead volumes to the samples, the beads were initially prepared to a 10% (v/v) bead suspension with 5 mM DTT in PBS. The samples, now 80 μL each, were then mixed with 10 μL of the 10% (v/v) bead suspension corresponding to addition of 1 μL packed bead volume. After capture on the NeutrAvidin beads for 1 hr, beads were washed by mixing 3× briefly (briefly=5 sec vortex mix) in 400 bead volumes per wash of PBS pH 7.5 and 5 mM DTT. The washing procedure was performed in batch mode using 0.45 micron pore size, PVDF membrane, micro-centrifuge Filtration Devices to facilitate manipulation of the small volumes of affinity matrix (˜100 micron beads) and exchange the buffers (Ultrafree-MC Durapore Micro-centrifuge Filtration Devices, 400 μL capacity; Millipore, Billerica, Mass.). Prior to contact photo-transfer of the captured and isolated proteins, the washed pellet of 1 μL of NeutrAvidin agarose beads was suspended in a final volume of 50 μL of 50% glycerol and 5 mM DTT in PBS thereby resulting in a 2% (v/v) bead suspension.
# T2 sequence (Q00987 whole entry): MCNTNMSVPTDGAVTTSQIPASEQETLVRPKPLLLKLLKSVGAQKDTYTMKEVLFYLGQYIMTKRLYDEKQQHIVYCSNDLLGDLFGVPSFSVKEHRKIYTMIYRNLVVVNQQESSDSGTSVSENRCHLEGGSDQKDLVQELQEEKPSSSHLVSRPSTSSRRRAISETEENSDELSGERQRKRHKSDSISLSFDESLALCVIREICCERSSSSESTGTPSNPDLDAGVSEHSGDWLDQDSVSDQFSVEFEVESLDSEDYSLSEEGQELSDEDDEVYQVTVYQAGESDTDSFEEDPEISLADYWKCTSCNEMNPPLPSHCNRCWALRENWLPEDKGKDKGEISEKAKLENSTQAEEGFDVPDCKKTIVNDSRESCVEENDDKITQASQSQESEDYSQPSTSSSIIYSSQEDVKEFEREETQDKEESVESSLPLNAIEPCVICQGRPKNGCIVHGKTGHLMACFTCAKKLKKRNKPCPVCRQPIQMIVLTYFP
binding of cell-free expressed BODIPY-FL p53 probe to MDM bait [2],Compound,"PKCα distribution, cytosol [1] [%]","PKCα distribution, membrane [1] [%]"
–,"CCCCCCCCCCCCCC(=O)O[C@@H]1[C@@H](C)[C@@]2(O)[C@@H](C=C(CO)C[C@]3(O)C(=O)C(C)=C[C@@H]23)[C@@H]2C(C)(C)[C@]12OC(C)=O [PMA, Phorbol-12-Myristate-13-Acetate]",16±4,84±3
selective binding,p53 probe: cell-free expressed p53 labeled only with BODIPY-FL using BODIPY-FL-tRNA COMPLETE,–,–
